Experimental data from patent US20160000750A1, “COMBINATION OF EGCG OR METHYLATED EGCG AND A PDE INHIBITOR” (KYUSHU UNIVERSITY, NATIONAL UNIVERSITY CORPORATION, priority 2010, published 2016).

Experiments:
[1] = system: human multiple myeloma cell line, U266; test: Trypan blue cell viability and viable cell count, U266; type: cell-based; conditions: vardenafil 5 μM, EGCG 5 μM added after 3 hours, 96 hours
Method: A human multiple myeloma cell line, U266, was subcultured in an RPMI 1640 medium (NISSUI PHARMACEUTICAL Co. LTD., Tokyo) supplemented with 10% fetal calf serum (FCS) (BIOLOGICAL INDUSTRIES) at 37° C. under vapor-saturated 5% CO2 conditions. The cells were cultured in the logarithmic growth phase. A human acute myeloid leukemia cell line, HL60, was subcultured in an RPMI 1640 medium supplemented with 10% fetal calf serum (FCS) at 37° C. under vapor-saturated 5% CO2 conditions. The cells were cultured in the logarithmic growth phase. […]
(§1) The plate was returned to the incubator immediately after the addition of EGCG, followed by culturing for 96 hours. […] After 10 minutes, the number of the cells was counted with a hemocytometer (Becton, Dickinson and Company). Unstained cells were deemed as viable cells, and the cell viability was determined as a ratio of the number of unstained cells in trypan blue staining to the total number of cells. […]

[2] = system: human multiple myeloma cell line, U266; test: Involvement of 67LR (anti-67LR antibody MLuc5) in cell-killing and cytostatic activity, U266; type: cell-based; conditions: U266, 96-well; vardenafil 5 μM, EGCG 5 μM; 96 hours; without anti-67LR antibody (isotype control mouse IgM)
Method: A trypan blue staining solution was prepared by suspending trypan blue in PBS at a concentration of 1% and was used in investigation of the anti-cancer activity of a combination of EGCG and vardenafil by trypan blue assay. The PBS used was prepared by dissolving 8.0 g of NaCl, 0.2 g of KCl, 1.15 g of Na2HPO4, and 0.2 g of KH2PO4 in 1 L of ultrapure water, followed by autoclave sterilization.
A human multiple myeloma cell line, U266, and a human acute myeloid leukemia cell line, HL60, adjusted to be 5×10^4 cells/mL (U266) and 1×10^4 cells/mL (HL60), respectively, in an RPMI 1640 medium supplemented with 1% FCS were seeded in a 96-well plate (Falcon Co., Ltd.). Vardenafil was added thereto at a final concentration of 5 μM. Immediately after the addition, an anti-67LR monoclonal antibody, MLuc5 (Abcam PLC), was added thereto at a final concentration of 20 μg/mL. In the group of adding an isotype control antibody, mouse IgM (Cosmo Bio Co., Ltd., Tokyo) was added at a final concentration of 20 μg/mL. […]
as §1, with “hemocytometer.” for “hemocytometer (Becton, Dickinson and Company).”

## (−)-epigallocatechin-3-O-gallate [EGCG]
[1]
  cell viability (cell-killing activity): any cytotoxicity was not observed
[2]
  cell viability (cell-killing activity): any cytotoxicity was not observed
